Laboratory results: patent publication US9133148B2, “Carbamate compounds and of making and using same” (Abide Therapeutics, Inc., priority 2012, dated 2015)

Columns and labels:
[1] = target: Human MAGL (Homo sapiens (Human), UniProt Q99685); test: Competitive ABPP with recombinant human MAGL expressed in HEK293T cells; format: biochemical
Description: (§1) Proteomes (mouse brain membrane fraction or cell lysates) ([…], 1.0 mg/mL total protein concentration) were preincubated with varying concentrations of inhibitors at 37° C. After 30 min, FP-Rh (1.0 μL, 50 μM in DMSO) was added and the mixture was incubated for another 30 min at 37° C. Reactions were quenched with SDS loading buffer (50 μL—4×) and run on SDS-PAGE.
Recombinant Expression of Human MAGL in HEK293T Cells.
Cell lysates were diluted with mock proteomes for use in competitive ABPP experiments.

[2] = target: T1, MAGL (Mus musculus (Mouse), UniProt O35678); test: In vitro competitive activity-based protein profiling (FP-Rh), mouse MAGL; format: biochemical; details: mouse brain membrane proteome
T1 sequence (O35678 whole entry): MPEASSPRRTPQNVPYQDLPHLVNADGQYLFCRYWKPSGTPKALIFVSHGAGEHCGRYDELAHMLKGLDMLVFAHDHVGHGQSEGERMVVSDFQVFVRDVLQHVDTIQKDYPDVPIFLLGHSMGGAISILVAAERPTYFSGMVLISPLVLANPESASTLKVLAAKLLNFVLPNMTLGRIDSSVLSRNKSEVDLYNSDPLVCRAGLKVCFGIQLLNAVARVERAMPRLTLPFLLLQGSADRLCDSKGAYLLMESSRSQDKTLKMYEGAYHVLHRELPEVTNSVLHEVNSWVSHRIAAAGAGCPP
Description: (§2) In Vitro Competitive Activity-Based Protein Profiling.
as §1

[3] = target: Mouse brain MAGL (Mus musculus (Mouse), UniProt O35678); test: Mouse brain proteomes from inhibitor treated mice (oral gavage, ABPP of brain MAGL); format: in vivo; details: for ED50: po; for Mouse brain MAGL (% inhibition at 20 mg/kg, p.o.) / Mouse brain MAGL (% inhibition at 5 mg/kg, p.o.): 4 h following administration
Mouse brain MAGL, sequence (O35678 whole entry): as above
Description: Preparation of Mouse Brain Proteomes from Inhibitor Treated Mice.
Inhibitors were administered to wild-type C57Bl/6J by oral gavage in a vehicle of polyethylene glycol.

[4] = target: T2, ABHD6 (Mus musculus (Mouse), UniProt Q8R2Y0); test: In vitro competitive activity-based protein profiling (FP-Rh), mouse ABHD6; format: biochemical; details: mouse brain membrane proteome
T2 sequence (Q8R2Y0 whole entry): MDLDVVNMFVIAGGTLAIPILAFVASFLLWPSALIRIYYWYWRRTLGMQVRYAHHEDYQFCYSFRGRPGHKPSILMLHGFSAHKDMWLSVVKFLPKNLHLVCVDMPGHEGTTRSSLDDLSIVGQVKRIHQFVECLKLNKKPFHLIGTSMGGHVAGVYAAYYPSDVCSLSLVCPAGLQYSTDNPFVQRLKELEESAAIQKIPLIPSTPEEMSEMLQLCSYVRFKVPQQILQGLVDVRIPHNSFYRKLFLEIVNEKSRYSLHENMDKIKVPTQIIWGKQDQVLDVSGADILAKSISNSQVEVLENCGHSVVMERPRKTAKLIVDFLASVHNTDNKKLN
Description: as §2, §1

[5] = target: T3, FAAH (Mus musculus (Mouse), UniProt O08914); test: In vitro competitive activity-based protein profiling (FP-Rh), mouse FAAH; format: biochemical; details: mouse brain membrane proteome
T3 sequence (O08914 whole entry): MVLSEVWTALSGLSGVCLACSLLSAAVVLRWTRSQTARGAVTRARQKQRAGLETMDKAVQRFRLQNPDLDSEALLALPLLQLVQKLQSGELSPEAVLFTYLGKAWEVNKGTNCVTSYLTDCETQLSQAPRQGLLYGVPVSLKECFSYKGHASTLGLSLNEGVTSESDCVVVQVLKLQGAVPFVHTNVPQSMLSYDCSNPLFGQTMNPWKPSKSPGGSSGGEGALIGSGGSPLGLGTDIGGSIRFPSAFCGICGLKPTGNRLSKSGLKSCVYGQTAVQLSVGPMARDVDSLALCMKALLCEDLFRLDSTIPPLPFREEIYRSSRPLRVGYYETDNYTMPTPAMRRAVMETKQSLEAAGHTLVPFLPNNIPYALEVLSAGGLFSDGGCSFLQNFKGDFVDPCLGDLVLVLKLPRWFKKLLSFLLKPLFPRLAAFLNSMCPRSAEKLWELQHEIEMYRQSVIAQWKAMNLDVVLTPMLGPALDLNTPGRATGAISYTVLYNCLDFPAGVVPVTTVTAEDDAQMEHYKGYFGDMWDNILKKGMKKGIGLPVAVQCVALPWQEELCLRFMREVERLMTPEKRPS
Description: as §2, §1

[6] = target: T3, FAAH; test: Competitive ABPP, % inhibition at 1 uM, FAAH; format: biochemical
Summary of the method: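 Mouse brain membrane proteome or cell lysate (1.0 mg/mL protein) preincubated 30 min at 37° C with inhibitor, then labelled 30 min at 37° C with FP-Rh probe. Resolved by SDS-PAGE; activity from in-gel fluorescence intensity of FAAH band.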

[7] = target: T2, ABHD6; test: Competitive ABPP, % inhibition at 1 uM, ABHD6; format: biochemical
Description: as §2, §1

[8] = target: T1, MAGL; test: Competitive ABPP, % inhibition at 1 uM, MAGL; format: biochemical
Description: as §2, §1

Human MAGL, sequence (Q99685 whole entry): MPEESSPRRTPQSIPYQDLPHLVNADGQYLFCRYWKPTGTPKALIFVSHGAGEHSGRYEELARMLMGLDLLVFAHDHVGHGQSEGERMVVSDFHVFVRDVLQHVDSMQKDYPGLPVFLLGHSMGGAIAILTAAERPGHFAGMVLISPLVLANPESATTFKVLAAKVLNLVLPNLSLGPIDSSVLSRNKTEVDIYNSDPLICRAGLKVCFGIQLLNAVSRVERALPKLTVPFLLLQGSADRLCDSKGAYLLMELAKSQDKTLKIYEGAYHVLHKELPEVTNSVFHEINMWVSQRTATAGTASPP

Row | SMILES | IC50 ([2]; competitive ABPP (Table 7)) | IC50 ([4]; competitive ABPP (Table 7)) | IC50 ([5]; competitive ABPP (Table 7)) | IC50 ([1]; hMAGL in HEK293T cell lysates) | IC50 ([2]; competitive ABPP) | Mouse brain MAGL (% inhibition at 20 mg/kg, p.o.) [3] | IC50 ([4]; competitive ABPP) | IC50 ([5]; competitive ABPP) | Mouse brain MAGL (% inhibition at 5 mg/kg, p.o.) [3] | also measured
1 | COc1cc(N2CCOCC2)ccc1CN1CCN(C(=O)OC(C(F)(F)F)C(F)(F)F)CC1 [Example 9s, 1,1,1,3,3,3-hexafluoropropan-2-yl 4-(2-methoxy-4-morpholinobenzyl)piperazine-1-carboxylate] | < 100 nM | 100 to 1000 nM | > 6250 nM | – | – | – | – | – | – | IC50 ([1]; hMAGL in HEK293T cell lysates (Table 7)): < 100 nM; ED50 [3]: < 4 mg/kg
2 | O=C(OC(C(F)(F)F)C(F)(F)F)N1CCN(C(c2ccc3c(c2)OCO3)c2ccc3c(c2)OCO3)CC1 [Example 2d, 1,1,1,3,3,3-hexafluoropropan-2-yl 4-(bis(benzo[d][1,3]dioxol-5-yl)methyl)piperazine-1-carboxylate] | – | – | – | < 100 nM | < 100 nM | >95% | 100 to 1000 nM | > 10000 nM | – | –
3 | O=C(OC(C(F)(F)F)C(F)(F)F)N1CCN(Cc2cc(Cl)ccc2N2CCCC2)CC1 [Example 9n, 1,1,1,3,3,3-hexafluoropropan-2-yl 4-[[5-chloro-2-(pyrrolidin-1-yl)phenyl]methyl]piperazine-1-carboxylate] | < 100 nM | > 1000 nM | > 10000 nM | – | – | – | – | – | 75% | inhibition at 1 µM [6]: < 25%; inhibition at 1 µM [7]: 25 to 75%; inhibition at 1 µM [8]: 25 to 75%
4 | O=C(OC(C(F)(F)F)C(F)(F)F)N1CCC(C(c2ccc3c(c2)OCO3)c2ccc3c(c2)OCO3)CC1 [Example 1c, 1,1,1,3,3,3-hexafluoropropan-2-yl 4-(bis(benzo[d][1,3]dioxol-5-yl)methyl)piperidine-1-carboxylate] | – | – | – | < 100 nM | < 100 nM | >95% | > 1000 nM | > 10000 nM | – | –
5 | CC(=O)NC1CCN(c2cc(Cl)ccc2CN2CCN(C(=O)OC(C(F)(F)F)C(F)(F)F)CC2)C1 (stereo not drawn) [Example 9af, 1,1,1,3,3,3-hexafluoropropan-2-yl 4-(2-(3-acetamidopyrrolidin-1-yl)-4-chlorobenzyl)piperazine-1-carboxylate] | 100 to 1000 nM | > 1000 nM | > 10000 nM | – | – | – | – | – | – | ED50 [3]: < 4 mg/kg
6 | CNC(=O)C(OC(=O)N1CCN(C(c2ccc(Cl)cc2)c2ccc(Cl)cc2)CC1)C(F)(F)F (stereo not drawn) [Example 6j, 1,1,1-trifluoro-3-(methylamino)-3-oxopropan-2-yl 4-(bis(4-chlorophenyl)methyl)piperazine-1-carboxylate] | – | – | – | – | 100 to 1000 nM | >95% | < 100 nM | > 10000 nM | – | –
7 | O=C(OC(C(F)(F)F)C(F)(F)F)N1CCN(Cc2ccc(Cl)cc2N2CCC3(CCNC3=O)CC2)CC1 [Example 9ax, 1,1,1,3,3,3-hexafluoropropan-2-yl 4-(4-chloro-2-(1-oxo-2,8-diazaspiro[4.5]decan-8-yl)benzyl)piperazine-1-carboxylate] | < 100 nM | > 1000 nM | > 10000 nM | – | – | – | – | – | 75% | –
8 | O=C(OC(C(F)(F)F)C(F)(F)F)N1CCN(C(c2ccc(Br)cc2)c2ccc(Br)cc2)CC1 [Example 2c, 1,1,1,3,3,3-hexafluoropropan-2-yl 4-(bis(4-bromophenyl)methyl)-piperazine-1-carboxylate] | – | – | – | < 100 nM | 100 to 1000 nM | 94% | > 1000 nM | > 10000 nM | – | –
9 | O=C(OC(C(F)(F)F)C(F)(F)F)N1CCN(Cc2cccc(Cl)c2N2CCCC2)CC1 [Example 9ar, 1,1,1,3,3,3-hexafluoropropan-2-yl 4-(3-chloro-2-(pyrrolidin-1-yl)benzyl)piperazine-1-carboxylate] | < 100 nM | > 1000 nM | > 10000 nM | – | – | – | – | – | 75% | –
10 | CS(=O)(=O)N1CCN(c2cc(Cl)ccc2CN2CCN(C(=O)OC(C(F)(F)F)C(F)(F)F)CC2)CC1 [Example 9bj, 1,1,1,3,3,3-hexafluoropropan-2-yl 4-(4-chloro-2-(4-(methylsulfonyl)piperazin-1-yl)benzyl)piperazine-1-carboxylate] | < 100 nM | 100 to 1000 nM | > 10000 nM | – | – | – | – | – | 75% | –
11 | O=C(OC(C(F)(F)F)C(F)(F)F)N1CCC(C(O)(c2ccc3c(c2)OCO3)c2ccc3c(c2)OCO3)CC1 [Example 1a, 1,1,1,3,3,3-hexafluoropropan-2-yl 4-(bis(benzo[d][1,3]dioxol-5-yl)(hydroxy)methyl)piperidine-1-carboxylate] | – | – | – | < 100 nM | < 100 nM | >95% | > 1000 nM | > 10000 nM | – | –
12 | CN(Cc1cccc(-c2cccnc2)c1)C(=O)OC(C(F)(F)F)C(F)(F)F [Example 3g, 1,1,1,3,3,3-hexafluoropropan-2-yl methyl(3-(pyridin-3-yl)benzyl)-carbamate] | – | – | – | < 100 nM | 100 to 1000 nM | 93% | < 100 nM | > 10000 nM | – | –
13 | CC(C)n1cc(CN2CCN(C(=O)OC(C(F)(F)F)C(F)(F)F)CC2)c(-c2ccccc2Cl)n1 [Example 10i, 1,1,1,3,3,3-hexafluoropropan-2-yl 4-[[3-(2-chlorophenyl)-1-(propan-2-yl)-1H-pyrazol-4-yl]methyl]piperazine-1-carboxylate] | < 100 nM | 100 to 1000 nM | > 10000 nM | – | – | – | – | – | 75% | –
14 | O=C(OC(C(F)(F)F)C(F)(F)F)N1CCN(C(c2ccc(F)cc2)c2ccc(F)cc2)CC1 [Example 2a, 1,1,1,3,3,3-hexafluoropropan-2-yl 4-(bis(4-fluorophenyl)methyl)-piperazine-1-carboxylate] | – | – | – | < 100 nM | < 100 nM | >95% | > 1000 nM | > 10000 nM | – | –
15 | O=C(OC(C(F)(F)F)C(F)(F)F)N1CCN(Cc2ccc(Cl)cc2N2CCC2)CC1 [Example 9ay, 1,1,1,3,3,3-hexafluoropropan-2-yl 4-(2-(azetidin-1-yl)-4-chlorobenzyl)piperazine-1-carboxylate] | < 100 nM | > 1000 nM | > 10000 nM | – | – | – | – | – | 50% | –
16 | O=C(OC(C(F)(F)F)C(F)(F)F)N1CCN(Cc2cccc(F)c2N2CCOCC2)CC1 [Example 9d, 1,1,1,3,3,3-hexafluoropropan-2-yl 4-[[3-fluoro-2-(morpholin-4-yl)phenyl]methyl]piperazine-1-carboxylate] | < 100 nM | > 1000 nM | > 10000 nM | – | – | – | – | – | – | ED50 [3]: < 4 mg/kg
17 | COC(c1ccc2c(c1)OCO2)(c1ccc2c(c1)OCO2)C1CCN(C(=O)OC(C(F)(F)F)C(F)(F)F)CC1 [Example 1b, 1,1,1,3,3,3-hexafluoropropan-2-yl 4-(bis(benzo[d][1,3]dioxol-5-yl)(methoxy)methyl)piperidine-1-carboxylate] | – | – | – | – | < 100 nM | 13% | 100 to 1000 nM | > 10000 nM | – | –
18 | O=C(OC(C(F)(F)F)C(F)(F)F)N1CCN(Cc2ccc(-c3ccccc3)cc2C(=O)N2CCCC2)CC1 [Example 11y, 1,1,1,3,3,3-hexafluoropropan-2-yl 4-([4-phenyl-2-[(pyrrolidin-1-yl)carbonyl]phenyl]methyl)piperazine-1-carboxylate] | < 100 nM | > 1000 nM | > 10000 nM | – | – | – | – | – | 75% | –
19 | CC(C)(C)c1ccc(S(=O)(=O)N2CCN(C(=O)OC(C(F)(F)F)C(F)(F)F)CC2)cc1 [Example 4c, 1,1,1,3,3,3-hexafluoropropan-2-yl 4-((4-(tert-butyl)phenyl)sulfonyl)-piperazine-1-carboxylate] | – | – | – | < 100 nM | < 100 nM | >95% | > 1000 nM | > 10000 nM | – | –
